Test results from patent EP0906913A1, “Pteridinderivatives as NO synthase inhibitors” (Werner, Ernst, priority 1997, dated 1999).

What was measured:
[1] = molecular target: T1, rekombinante, neuronale, Tetrahydrobiopterin-freie NO-Synthase (Rattus norvegicus, UniProt P29476); experiment: Inhibition of recombinant neuronal tetrahydrobiopterin-free NO synthase ([3H]citrulline formation from [3H]arginine); type: biochemical; conditions: for NO-Synthase -Aktivität / inhibition at 0.01 µM / inhibition at 0.1 µM / inhibition at 1 µM / inhibition at 10 µM / inhibition at 100 µM / inhibition at 1000 µM: 10 µM Tetrahydrobiopterin, 10 min, 37°C; for inhibition at 0.01 µM / inhibition at 0.1 µM / inhibition at 1 µM / inhibition at 10 µM / inhibition at 100 µM / inhibition at 1000 µM: read-out: Hemmung
T1 construct: made in house
Description: Zum Nachweis der Wirkung der Hemmstoffe eignet sich z.B. rekombinante, neuronale, Tetrahydrobiopterin-freie NO-Synthase, welche nach der Methode von List et al. 1996 (Ref. 7) hergestellt wird. Die NO-Synthaseaktivität wird dabei in Abhängigkeit von der Zugabe des NO-Synthase-Hemmstoffes durch die Bildung von [2,3,4,5-^3H]Citrullin aus [2,3,4,5-^3H]Arginin nach der Methode von Mayer et al. (Ref. 8) bestimmt. Dazu wird in 0.1 ml folgendes Gemisch für 10 min bei 37°C inkubiert: 0.1 µg NO-Synthase, 0.1mM [2,3,4,5-^3H]-L-Arginin (ca. 60000 cpm), 0.5 mM CaCl2, 10 µg/ml Calmodulin, 0.2 mM NADPH (Nicotinamidadenindinukleotid, reduzierte Form), 10 µM Tetrahydrobiopterin, 0-1000 µM NO-Synthase-Inhibitor (z.B. H2aminobiopterin), 5 µM FAD (Flavinadenindinucleutid), 5 µM FMN (Flavinmononucleotid), und 0.2 mM CHAPS (3-[(3-cholamidopropyl)dimethyl-amonio]-1-propansulfonat). Die Reaktion wird durch Zugabe von 0.9 ml 20 mM Natriumacetatpuffer, pH = 5,5, der 1 mM L-Citrullin enthält, gestoppt. Das Gemisch wird anschließend auf Ionenaustauschersäulen, die mit dem Material DOWEX AG50W-X8 gefüllt sind, aufgetragen, und das Eluat sowie die Waschflüssigkeit (1 ml Wasser) werden aufgefangen. 7 ml Scintillationscocktail werden zugegeben und die Radioaktivität, die ein Maß für die NO-Synthaseaktivität ist, wird mit einem Szintillationszähler bestimmt. Tabelle I

[2] = tested on: kultivierten, cytokin-stimulierten Mausfibroblasten; experiment: Nitrite in supernatant of cultured cytokine-stimulated mouse fibroblasts (Griess reaction); type: cell-based, Maus; conditions: for inhibition at 2.5 µM / inhibition at 10 µM / inhibition at 25 µM / inhibition at 100 µM / inhibition at 250 µM: Fibroblast, read-out: Hemmung; for inhibition at 2.5 µM / inhibition at 10 µM / inhibition at 25 µM / inhibition at 100 µM / inhibition at 250 µM / Nitrit im Überstand: 96 h, Interferon-gamma, TNF-alpha, LPS stimulated
Description: Zum Nachweis der Wirksamkeit einer Verbindung der vorliegenden Erfindung an kultivierten Zellen wurden Mausfibroblasten nach Werner-Felmayer et al., (Ref. 9) gewonnen und in RPMI 1640 Medium (Schoeller Pharma, Wien, Österreich) mit 20% Hitze-inaktiviertem fötalem Kälberserum (Schoeller Pharma) in einer Dichte von 10^5 Zellen pro ml ausgesät und mit 50 U/ml Mäuse-Interferongamma, 100 U/ml Tumornekrose Faktor-Alpha und 1 µg/ml Lipopolysaccharid (E. coli B55:05) in Gegenwart verschiedener Konzentrationen von Hemmstoffen kultiviert. Nach 96 h im Brutschrank (100% Luftfeuchtigkeit, 37°C, 5% CO2) werden die Überstände gesammelt und mit der Griess-Reaktion auf ihren Gehalt an Nitrit, einem Abbauprodukt von NO, analysiert. Die folgende Tabelle 2 zeigt einen Vergleich von H2aminobiopterin (R1 = R3 = H, R2 = R4 = OH, R5 = CH3), H4aminobiopterin und Beispiel 72 aus DE 4418097: Tabelle 2

Structure (SMILES)	NO-Synthase -Aktivität ([1]; inhibitor 0.01 µM)	inhibition at 0.01 µM ([1]; inhibitor 0.01 µM)	NO-Synthase -Aktivität ([1]; inhibitor 0.1 µM)	inhibition at 0.1 µM ([1]; inhibitor 0.1 µM)	NO-Synthase -Aktivität ([1]; inhibitor 1.0 µM)	inhibition at 1 µM ([1]; inhibitor 1.0 µM)	NO-Synthase -Aktivität ([1]; inhibitor 10. µM)	inhibition at 10 µM ([1]; inhibitor 10. µM)	NO-Synthase -Aktivität ([1]; inhibitor 100. µM)	inhibition at 100 µM ([1]; inhibitor 100. µM)	NO-Synthase -Aktivität ([1]; inhibitor 1000. µM)	inhibition at 1000 µM ([1]; inhibitor 1000. µM)	inhibition at 2.5 µM ([2]; inhibitor 2.5 µM)	inhibition at 10 µM ([2]; inhibitor 10 µM)	inhibition at 25 µM ([2]; inhibitor 25 µM)	inhibition at 100 µM ([2]; inhibitor 100 µM)	inhibition at 250 µM ([2]; inhibitor 250 µM)	Nitrit im Überstand ([2]; inhibitor 2.5 µM)	Nitrit im Überstand ([2]; inhibitor 10 µM)	Nitrit im Überstand ([2]; inhibitor 25 µM)	other results
C[C@H](O)[C@H](O)C1=Nc2c(N)nc(N)nc2NC1 [H2aminobiopterin, 2,4-diamino-7,8-dihydro-6(L-erythro-1,2-dihydroxylpropyl) pteridin]	294 nmol/mg/min	0.3%	283 nmol/mg/min	4%	242 nmol/mg/min	18%	110 nmol/mg/min	64%	48 nmol/mg/min	83%	25 nmol/mg/min	92%	35%	78%	99%	100%	100%	6.2 µM	2.1 µM	0.1 µM	Hemmung des Enzyms (Vergleich) ([1]; in words, compared with 6R-H4aminobiopterin): in der gleichen Größenordnung; Wirksamkeit am Enzym (Vergleich) ([1]; in words, compared with Beispiel 72 of DE 4418097): wesentlich wirksamer; Wirksamkeit an kultivierten Zellen (Vergleich) ([2]; in words, compared with previously known pteridine derivatives): deutlich wirksamer; Nitrit im Überstand ([2]; inhibitor 100 µM): 0.0 µM; Nitrit im Überstand ([2]; inhibitor 250 µM): 0.0 µM
C[C@H](O)[C@H](O)[C@H]1CNc2nc(N)nc(N)c2N1 [H4aminobiopterin, 2,4-Diamino-5,6,7,8-tetrahydro-6R-(L-erythro-1,2 dihydroxypropyl)pteridin, reference compound]	279 nmol/mg/min	6%	262 nmol/mg/min	12%	181 nmol/mg/min	39%	72 nmol/mg/min	76%	35 nmol/mg/min	88%	24 nmol/mg/min	92%	7%	36%	62%	96%	99%	9.3 µM	6.4 µM	3.8 µM	Nitrit im Überstand ([2]; inhibitor 100 µM): 0.4 µM; Nitrit im Überstand ([2]; inhibitor 250 µM): 0.02 µM
